Assay results as given in patent US20070134261A1, “Effectors of innate immunity” (priority 2001, published 2007).
Values after ≈ are worked out from the molar mass of the structure shown. Like-named read-outs stand apart in the source and are kept apart here. One block for each compound: values may come before it. Residues, ends and D or L forms follow the SMILES beside them. No end group written: not given here.

What was measured:
[1] = test system: HBE cells; assay: WST-1 assay (cell viability); format: cell-based, human
Experimental: (§1) The potential toxicity of the peptides was measured in two ways. First, the Cytotoxicity Detection Kit (Roche) (Lactate dehydrogenase-LDH) Assay was used. It is a colorimetric assay for the quantification of cell death and cell lysis, based on the measurement of LDH activity released from the cytosol of damaged cells into the supernatant. LDH is a stable cytoplasmic enzyme present in all cells and it is released into the cell culture supernatant upon damage of the plasma membrane. An increase in the amount of dead or plasma membrane-damaged cells results in an increase of the LDH enzyme activity in the culture supernatant as measured with an ELISA plate reader, OD490 nm (the amount of color formed in the assay is proportional to the number of lysed cells). In this assay, human bronchial epithelial cells (I6HBEo14, HBE) cells were incubated with 100 μg of peptide for 24 hours, the supernatant removed and tested for LDH. The other assay used to measure toxicity of the cationic peptides was the WST-1 assay (Roche). This assay is a colorimetric assay for the quantification of cell proliferation and cell viability, based on the cleavage of the tetrazolium salt WST-1 by mitochondrial dehydrogenases in viable cells (a non-radioactive alternative to the [^3H]-thymidine incorporation assay). In this assay, HBE cells were incubated with 100 μg of peptide for 24 hours, and then 10 μl/well Cell Proliferation Reagent WST-1 was added. The cells are incubated with the reagent and the plate is then measured with an ELISA plate reader, OD490 nm.

[2] = format: cell-based
[3] = test system: human bronchial epithelial cells (HBE); assay: LDH release assay (Cytotoxicity Detection Kit); format: cell-based; conditions: 24 hours; for LDH Release (OD490 nm): 100 μg/ml, no peptide control 1.0 ± 0.05; for toxicity / membrane damage: as measured by both assays (LDH, WST-1), HBE cells
Experimental: as §1

[4] = test system: A549 epithelial cells; assay: Human Operon arrays (PRHU04-S1) of A549 cells treated with peptide alone (Tables 31-37, 53); conditions: A549 cells, peptide 50 μg/ml, 4 h; for X58467 cytochrome P450, expression Ratio ID#:ctrl: Table 36
[5] = Citobacter rhodensis, overnight, 96-well plate
[6] = Enterohaemorrhagic E. coli, overnight, 96-well plate
[7] = Escherichia coli, overnight, 96-well plate
[8] = Pseudomonas aeruginosa, overnight, 96-well plate
[9] = Salmonella enteritidis ssp. typhimurium, overnight, 96-well plate
[10] = Staphylococcus aureus, overnight, 96-well plate

Compound: CC[C@H](C)[C@H](NC(=O)[C@H](CC(C)C)NC(=O)[C@H](C)NC(=O)[C@@H]1CCCN1C(=O)[C@H](CC(C)C)NC(=O)CNC(=O)[C@@H](NC(=O)[C@@H](NC(=O)[C@H](CC(C)C)NC(=O)[C@@H](NC(=O)[C@H](CCCCN)NC(=O)[C@H](CCCCN)NC(=O)[C@H](CC(C)C)NC(=O)[C@H](C)NC(=O)[C@H](CCCCN)NC(=O)[C@H](CCSC)NC(=O)[C@H](CC(C)C)NC(=O)[C@H](CCSC)NC(=O)[C@H](CCCCN)NC(=O)[C@H](CC(C)C)NC(=O)[C@H](Cc1ccccc1)NC(=O)[C@H](CO)NC(=O)[C@H](CCCCN)NC(=O)[C@H](CO)NC(=O)[C@@H](N)CCCCN)C(C)C)[C@@H](C)O)[C@@H](C)O)C(=O)N[C@@H](CO)C(=O)O [SEQ ID NO: 41]
OD490 nm (WST-1 cell viability) [1]: 0.40 ± 0.01 OD490 nm
MIC, C. rhod. [2, 5]: 2 µg/mL (≈ 0.702 µM)
MIC, EHEC [2, 6]: 2 µg/mL (≈ 0.702 µM)
MIC, E. coli [2, 7]: 4 µg/mL (≈ 1.4 µM)
MIC, P. aerug. [2, 8]: 8 µg/mL (≈ 2.81 µM)
MIC, S. typhim. [2, 9]: 8 µg/mL (≈ 2.81 µM)
MIC, S. aureus [2, 10]: 64 µg/mL (≈ 22.5 µM)
LDH Release (OD490 nm) [3]: 3.3 ± 0.2 OD490 nm
toxicity / membrane damage [3]: did induce membrane damage

Compound: LSRIAPAIPWAKL [SEQ ID NO: 10]
OD490 nm (WST-1 cell viability) [1]: 1.22 ± 0.05 OD490 nm
MIC, EHEC ([2]; 24 h): 64 µg/mL
LDH Release (OD490 nm) [3]: 1.04 ± 0.04 OD490 nm

Compound: KTKKFAKMLMMALKKVVSTAKPLAILS [ID 42]
X58467 cytochrome P450, expression Ratio ID#:ctrl [4]: 4.7

Compound: KTKKFAKMLMMALKKVVSTAKPLAILS [SEQ ID NO: 42]
OD490 nm (WST-1 cell viability) [1]: 0.39 ± 0.08 OD490 nm
MIC, C. rhod. ([2]; 24 h): 2 µg/mL
MIC, E. coli ([2]; 24 h): 1.5 µg/mL
MIC, EHEC ([2]; 24 h): 1 µg/mL
MIC, P. aerug. ([2]; 24 h): 4 µg/mL
MIC, S. aureus ([2]; 24 h): 64 µg/mL
MIC, S. typhim. ([2]; 24 h): 2 µg/mL
LDH Release (OD490 nm) [3]: 3.4 ± 0.2 OD490 nm
toxicity / membrane damage [3]: did induce membrane damage

Compound: KSRIVPAIPVSLL [SEQ ID NO: 7]
OD490 nm (WST-1 cell viability) [1]: 1.78 ± 0.10 OD490 nm
LDH Release (OD490 nm) [3]: 1.01 ± 0.04 OD490 nm

Compound: NLPDLKKPRVPATS [ID 17]
ID#:ctrl intensity ratio, M14565 cytochrome P450 [4]: 6.3

Compound: CC[C@H](C)[C@H](NC(=O)CNC(=O)[C@H](CCCNC(=N)N)NC(=O)[C@H](CCSC)NC(=O)[C@H](CO)NC(=O)[C@@H](NC(=O)[C@H](CCCNC(=N)N)NC(=O)[C@H](CCCNC(=N)N)NC(=O)[C@@H](NC(=O)[C@H](CS)NC(=O)[C@H](Cc1c[nH]cn1)NC(=O)[C@@H](N)CCCNC(=N)N)[C@@H](C)CC)C(C)C)C(=O)N[C@H](C(=O)N[C@@H](CCSC)C(=O)N[C@@H](CCCNC(=N)N)C(=O)N[C@@H](CCCNC(=N)N)C(=O)N[C@@H](CS)C(=O)N[C@@H](CCCCN)C(=O)O)[C@@H](C)CC [SEQ ID NO: 38] (H-RHCIRRVSMRGIIMRRCK-OH)
OD490 nm (WST-1 cell viability) [1]: 1.83 ± 0.03 OD490 nm
MIC, C. rhod. ([2]; 24 h): 8 µg/mL (≈ 3.52 µM)
MIC, E. coli ([2]; 24 h): 0.5 µg/mL (≈ 0.22 µM)
MIC, EHEC ([2]; 24 h): 4 µg/mL (≈ 1.76 µM)
MIC, P. aerug. ([2]; 24 h): 64 µg/mL (≈ 28.2 µM)
MIC, S. aureus ([2]; 24 h): 32 µg/mL (≈ 14.1 µM)
MIC, S. typhim. ([2]; 24 h): 4 µg/mL (≈ 1.76 µM)
LDH Release (OD490 nm) [3]: 0.95 ± 0.02 OD490 nm

Compound: SELPGLKHPCVPGS [SEQ ID NO: 13]
OD490 nm (WST-1 cell viability) [1]: 1.23 ± 0.11 OD490 nm
LDH Release (OD490 nm) [3]: 0.93 ± 0.06 OD490 nm

Compound: KQKLFAKMLMSALKKKTLVTTPLAGK [SEQ ID NO: 45]
OD490 nm (WST-1 cell viability) [1]: 1.54 ± 0.35 OD490 nm
MIC, C. rhod. ([2]; 24 h): 16 µg/mL
MIC, E. coli ([2]; 24 h): 8 µg/mL
MIC, EHEC ([2]; 24 h): 16 µg/mL
MIC, P. aerug. ([2]; 24 h): 128 µg/mL
MIC, S. typhim. ([2]; 24 h): 128 µg/mL
LDH Release (OD490 nm) [3]: 0.98 ± 0.04 OD490 nm

Compound: Gentamicin
MIC, C. rhod. [2, 5]: 0.25 µg/mL
MIC, EHEC [2, 6]: 0.5 µg/mL
MIC, E. coli [2, 7]: 0.25 µg/mL
MIC, P. aerug. [2, 8]: 0.25 µg/mL
MIC, S. typhim. [2, 9]: 0.25 µg/mL
MIC, S. aureus [2, 10]: 0.25 µg/mL

Compound: TTLGPVKRDSIPGE [SEQ ID NO: 14]
OD490 nm (WST-1 cell viability) [1]: 1.25 ± 0.02 OD490 nm
LDH Release (OD490 nm) [3]: 0.99 ± 0.05 OD490 nm

Compound: KCKLFKKMLMLALKKVLTTGLPALKLTK [ID 40]
X58467 cytochrome P450, expression Ratio ID#:ctrl [4]: 15.4

ID#:ctrl intensity ratio, M14565 cytochrome P450 [4]: 10.6
Compound: DLPAKRGSAPGST [ID 12]

Compound: RLARIVVIRVAR-NH2 [SEQ ID NO: 3, reference compound]
OD490 nm (WST-1 cell viability) [1]: 1.35 ± 0.12 OD490 nm
LDH Release (OD490 nm) [3]: 1.05 ± 0.04 OD490 nm

Compound: SLPIKHDRLPATS [ID 15]
ID#:ctrl intensity ratio, M14565 cytochrome P450 [4]: 3.6

Compound: NLPDLKKPRVPATS [SEQ ID NO: 17]
OD490 nm (WST-1 cell viability) [1]: 1.60 ± 0.46 OD490 nm
LDH Release (OD490 nm) [3]: 0.94 ± 0.04 OD490 nm

Compound: RRARIVPAIPVARR [SEQ ID NO: 9]
OD490 nm (WST-1 cell viability) [1]: 1.69 ± 0.29 OD490 nm
LDH Release (OD490 nm) [3]: 1.6 ± 0.03 OD490 nm

Compound: RAAFKWAWAWWRRK [ID 23]
ID#:ctrl intensity ratio, X65962 cytochrome P-450 [4]: 19.8
